Experimental data reported in US6748954B2, “Drug release from polymer matrices through mechanical stimulation” (The Regents of The University of Michigan, priority 2000, dated 2004).

Assay: in vitro release of trypan blue from alginate hydrogel disks with or without compression
Type: physicochemical
Experimental: In a first in vitro experiment, alginate hydrogels were prepared comprising 10 g PROTANAL, 4 mg trypan blue (Sigma Chemical) as a model drug molecule, and 63 mg CaSO4 (Sigma Chemical). The hydrogels were cut into disks of approximately 12.7 mm diameter and approximately 2 mm thick, and thereafter swollen overnight in the commercially available Dulbecco's Modified Eagle's Medium (DMEM). The hydrogel disks so prepared were next placed in custom-made sample holders of 13 mm diameter and 30 mm length. Porous stainless steel supports were provided on both the top and bottom of each hydrogel disk to permit release of the trypan blue drug during compression of the hydrogels.
The results of this first, in vitro experiment are shown in FIG. 1, which figure comprises an upper chart graphically depicting the mechanical stimulation cycle of compression/relaxation relative to a lower chart graphically depicting the release of the trypan blue drug from the mechanically stimulated hydrogels (line A). The control, non-compressed hydrogels are also depicted in this lower chart (line B).

effect of compression on trypan blue release (compressed (A) versus non-compressed (B) hydrogels): did not significantly alter
release of the trypan blue drug from the compressed hydrogels (compressed hydrogels (line A), three compression/relaxation cycles, 10% maximum compressive strain, DMEM-swollen): increased steadily
Compound: Cc1cc(-c2ccc(/N=N/c3c(S(=O)(=O)O)cc4cc(S(=O)(=O)O)cc(N)c4c3O)c(C)c2)ccc1/N=N/c1c(S(=O)(=O)O)cc2cc(S(=O)(=O)O)cc(N)c2c1O [trypan blue]
